This note sets out measurements from patent publication US20260354380A1, “PYRAZOLO PESTICIDAL COMPOUNDS” (BASF SE, priority 2022, published 2026).

Holding throughout (format): in vivo
In data set [1] the test system is Aedes aegypti. As to the kind of experiment: whole plant or invertebrate. The settings on record: 800 ppm; larvae; 2 days. The essentials:
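Visual larval mortality was assessed 2 days after treatment (28±1 °C, 80±5% RH). Formulations of compounds or mixtures (75% water/25% DMSO) were applied by micro-atomizer onto diet of 5-15 newly hatched larvae per water-filled well, two replicates per concentration.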

Data set [2] concerns Dichromothrips corbetti. As to the kind of experiment: Action on Orchid Thrips (Dichromothrips corbetti). The settings on record: 300 ppm; adults; 72 hours after treatment. As to the method: Example B2: Action on Orchid Thrips (Dichromothrips corbetti)
Dichromothrips corbetti adults used for bioassay were obtained from a colony maintained continuously under laboratory conditions. For testing purposes, the test compound is diluted in a 1:1 mixture of acetone: water (vol: vol), plus Kinetic® HV at a rate of 0.01% v/v.
Thrips potency of each compound was evaluated by using a floral-immersion technique. All petals of individual, intact orchid flowers were dipped into treatment solution and allowed to dryin Petri dishes. Treated petals were placed into individual re-sealable plastic along with about 20 adult thrips. All test arenas were held under continuous light and a temperature of about 28 °C for duration of the assay. After 3 days, the numbers of live thrips were counted on each petal. The percent mortality was recorded 72 hours after treatment.

In data set [3] the test system is Anthonomus grandis. As to the kind of experiment: Action on Boll Weevil (Anthonomus grandis). The settings on record: 800 ppm; egg and larval mortality; 5 days. The essentials:
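Diet in 96-well plates, seeded with 5-10 A. grandis eggs, received a spray of formulated compound (25% DMSO in water) at a range of concentrations, duplicated. Mortality of eggs and larvae was judged by eye after 5 days at about 25±1 °C, 75±5% relative humidity.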

Data set [4] relates to Bemisia argentifolii. As to the kind of experiment: Action on Silverleaf Whitefly (Bemisia argentifolii) (Adults). The settings on record: 300 ppm, 3 days after treatment. As to the method: Example B4: Action on Silverleaf Whitefly (Bemisia argentifolii) (Adults)
The active compounds were formulated by a Tecan liquid handler in 100% cyclohexanone as a 10,000 ppm solution supplied in tubes. The 10,000 ppm solution was serially diluted in 100% cyclohexanone to make interim solutions. These served as stock solutions for which final dilutions were made by the Tecan in 50% acetone: 50% water (v/v) into 5 or 10 ml glass vials. A nonionic surfactant (Kinetic®) was included in the solution at a volume of 0.01% (v/v). The vials were then inserted into an automated electrostatic sprayer equipped with an atomizing nozzle for application to plants/insects.
Cotton plants at the cotyledon stage (one plant per pot) were sprayed by an automated electrostatic plant sprayer equipped with an atomizing spray nozzle. The plants were dried in the sprayer fume hood and then removed from the sprayer. Each pot was placed into a plastic cup and about 10 to 12 whitefly adults (approximately 3-5 days old) were introduced. The insects were collected using an aspirator and a nontoxic Tygon® tubing connected to a barrier pipette tip. The tip, containing the collected insects, was then gently inserted into the soil containing the treated plant, allowing insects to crawl out of the tip to reach the foliage for feeding. […] Mortality was assessed 3 days after treatment, compared to untreated control plants.

In data set [5] the test system is Heliothis virescens. The experiment in a line: Action on Tobacco Budworm (Heliothis virescens). The settings on record: 800 ppm; egg and larval mortality; 5 days. The essentials: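 Eggs (15-25 per well) on diet were held 5 days at about 28±1 °C, 80±5% RH, then egg and larval mortality was scored by eye. Beforehand the diet had been sprayed with compound dilutions formulated in water/DMSO 75:25 v/v, in two replicates.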

Data set [6] relates to Plutella xylostella. As to the kind of experiment: Action on Diamond Back Moth (Plutella xylostella), cabbage leaf dip, 3rd instar larvae. The settings on record: 300 ppm; 3rd instar larvae; 72 hours after treatment. The essentials: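 Cabbage leaves dipped in compound solution (1:1 water:acetone, 0.01% v/v surfactant), air-dried, then infested with ten 3rd-instar larvae in petri dishes on moist filter paper. Mortality scored at 72 h after treatment; feeding damage rated on a 0–100% scale.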

The subject of data set [7] is Spodoptera eridania. The experiment in a line: Action on Southern Armyworm (Spodoptera eridania), 2nd Instar Larvae. The settings on record: 300 ppm; 2nd instar larvae; 4 days after treatment. The essentials:
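2nd-instar Spodoptera eridania larvae (about 10–11 per pot) confined on sprayed, dried Lima bean plants (1st true leaf stage) in sealed bags. Spray solutions: acetone/water 1:1 plus 0.01% surfactant. Held 4 days near 25 °C, 20–40% RH; assessed for mortality and feeding reduction against untreated controls.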

Data set [8] relates to Plutella xylostella. As to the kind of experiment: Action on Diamond Back Moth (Plutella xylostella), microtiter plates, insect diet, eggs. The settings on record: 800 ppm; egg and larval mortality; 5 days. The essentials:
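Diet in 96-well plates with 15–25 P. xylostella eggs, sprayed with compound formulated in 75% water/25% DMSO at several concentrations, two replicates; mixtures combined in equal volumes. Incubated 5 days at 28±1 °C, 80±5% RH, then egg and larval mortality scored visually.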

For `Cc1ccc(C(C)C)c(N2C(=O)CS/C2=N\C(=O)Nc2ccc(-n3cc(NC(=O)c4ccc(OC(F)(F)F)cc4)c(C)n3)cc2F)c1` [Example C-6], the “mortality in comparison with untreated controls” value (“mortality in comparison” for short) in data set [1] is reported as “at least 50%”; in data set [2], “at least 75%”; in data set [3] it was “at least 75%”; in data set [4], “at least 75%”; in data set [5], “at least 75%”; in data set [6], “at least 75%”. Also, in data set [7], the “mortality in comparison” value is listed as “at least 75%”.
Turning to `Cc1ccc(C(C)C)c(N2C(=O)CS/C2=N\C(=O)Nc2ccc(-n3cc(NC(=O)c4ccc(F)c(F)c4)c(C)n3)cc2)c1` [Example C-25], the “mortality in comparison” value is recorded as “at least 50%” in data set [1]; “at least 75%” in data set [2]; “at least 75%” in data set [3]; “at least 75%” in data set [5]; “at least 75%” in data set [6]; “at least 75%” in data set [7].
As to `Cc1ccc(C(C)C)c(N2C(=O)CSC2=NC(=O)Nc2ccc(-n3nc(C)c(N(CC4CC4)C(=O)c4ccc(OC(F)(F)F)cc4)c3C)cc2Cl)c1` [Example C-46], the “mortality in comparison” value in data set [1] was “at least 50%”; in data set [2], “at least 75%”; in data set [3], “at least 75%”; in data set [5], “at least 75%”; in data set [7], “at least 75%”; in data set [8] it was “at least 75%”.
`CCN(C(=O)c1ccc(OC(F)(F)F)cc1)c1c(C)nn(-c2ccc(NC(=O)/N=C3\SCC(=O)N3c3cc(C)ccc3C(C)C)c(Cl)c2)c1C` [Example C-97]: the “mortality in comparison” value was “at least 50%” in data set [1]; “at least 75%” in data set [2]; “at least 75%” in data set [3]; “at least 75%” in data set [5]; “at least 75%” in data set [6]; “at least 75%” in data set [7].
`Cc1ccc(C(C)C)c(N2C(=O)CS/C2=N\C(=O)Nc2cc(F)c(-n3nc(C)c(NC(=O)c4ccc(OC(F)(F)F)cc4)c3C)cc2Cl)c1` [Example C-104]: the “mortality in comparison” value in data set [1] is given as “at least 50%”; in data set [2], “at least 75%”; in data set [3], “at least 75%”; in data set [5], “at least 75%”; in data set [7], “at least 75%”; in data set [8], “at least 75%”.
Consider `Cc1ccc(C(C)C)c(N2C(=O)CSC2=NC(=O)Nc2ccc(-n3nc(C)c(NC(=O)c4ccc(OC(F)(F)F)cc4)c3C)c(Cl)c2Cl)c1` [Example C-123], for which the “mortality in comparison” value is reported as “at least 50%” in data set [1]; “at least 75%” in data set [2]; “at least 75%” in data set [3]; “at least 75%” in data set [5]; “at least 75%” in data set [7]; “at least 75%” in data set [8].
`Cc1ccc(C(C)C)c(NC(=S)NC(=O)Nc2ccc(-n3nc(C)c(NC(=O)c4ccc(OC(F)(F)F)cc4)c3C)cc2Cl)c1` [Example C-125]: the “mortality in comparison” value in data set [1] was “at least 50%”; in data set [2], “at least 75%”; in data set [3], “at least 75%”; in data set [5] it was “at least 75%”; in data set [7], “at least 75%”; in data set [8], “at least 75%”.
For `Cc1ccc(C(C)C)c(N/C(=N/C(=O)Nc2ccc(-n3nc(C)c(NC(=O)c4ccc(OC(F)(F)F)cc4)c3C)cc2Cl)SCOC(=O)C(C)C)c1` [Example C-130], the “mortality in comparison” value was “at least 50%” in data set [1]; “at least 75%” in data set [2]; “at least 75%” in data set [3]; “at least 75%” in data set [5]; “at least 75%” in data set [8].
